Here are results for one molecule from patent publication EP0063149B1, “AQUEOUS FLUOROCARBIDE EMULSIONS INDEFINITELY STABLE AT A GIVEN TEMPERATURE, PROCESS FOR OBTAINING THEM AND APPLICATIONS” (Etablissement Public dit: CENTRE NATIONAL DE LA RECHERCHE …, priority 1980, dated 1982).

Data set [1] deals with sang humain. Nature of the data set: Diluted thrombin time on plasma of blood put in contact with the products. It counts as biochemical. To be noted: summary. The protocol:
(§1) • le sang humain était du sang de sujets normaux, prélevé le jour de l'essai, en flacon siliconé, et sur citrate à 9 %, dans le rapport du 1/20; • les produits (microémulsions ou témoin) mis en présence de ce sang, en proportions variables, ont permis, après 10 minutes d'incubation à la température du laboratoire, de pratiquer un thromboélastogramme sur sang total, afin de mettre en évidence une action éventuelle sur la coagulation globale selon le mode opératoire décrit par C. RABY dans Biologie des Hémorragies et des Thromboses 1 vol., Masson et Cie, Edit. Paris 1966, p. 187; • un temps de thrombine diluée a été effectué sur les plasmas des sangs ayant été en contact avec les microémulsions selon l'invention pendant 30 minutes à la température du laboratoire selon le mode opératoire décrit par C. RABY à la page 119 de l'ouvrage cité ci-dessus.
Dans la détermination du temps de thrombine on a utilisé de l'eau physiologique comme témoin.

The subject of data set [2] is sang humain. Nature of the data set: Haemolysis evaluated on plasma after centrifugation. It counts as cell-based. The conditions noted are these: plasma after centrifugation of blood at 2 000 g for 15 minutes. The procedure:
as §1
L'hémolyse a été évaluée sur ces plasmas après centrifugation du sang à 2 000 g pendant 15 minutes.

Data set [3] is described as follows: Cloud point of the surfactant. It counts as physicochemical.
Data set [4] in a line: Solubility and dispersion of the surfactant in physiological saline. It counts as physicochemical. The protocol: A des fins de comparaison, on a également utilisé les microémulsions ci-dessus d'une part en présence d'éthanol et d'autre part en l'absence d'éthanol.
En présence d'éthanol (VN), une solution limpide a été obtenue avec l'agent tensio-actif. Celle-ci, ajoutée dans les proportions de 0,2 ml à 1,8 ml d'eau physiologique, a donné, après agitation, une émulsion laiteuse, instable, s'éclaircissant en 15 minutes environ, tant à la température du laboratoire qu'à 37 °C.

In data set [5] the test system is sang humain. Nature of the data set: In vitro haemocompatibility: direct action on blood, overall observation. The procedure:
On a recherché si les microémulsions selon l'invention avaient une action sur le sang humain en effectuant un thromboélastogramme, en mesurant le temps de thrombine diluée et en évaluant l'hémolyse.
as §1
(§2) Cette émulsion, mise en présence de quatre échantillons de sang humain, à raison de 0,1 ml pour 0,9 ml de sang, a permis d'effectuer les essais définis ci-dessus.

Data set [6] deals with sang humain. Nature of the data set: Thromboelastogram on whole blood. To be noted: after recalcification, emulsion with ethanol, 10 minutes incubation. The protocol: as §1, §2
[7] abbreviates: ethanol solution, 0,2 ml in 1,8 ml eau physiologique, laboratory temperature and 37 °C.
Setting [8] is: emulsion with ethanol, 0,1 ml for 0,9 ml blood.

`OCCOCCOCCOCCOCCOCCOCC(F)(F)C(F)(F)C(F)(F)C(F)(F)C(F)(F)C(F)(F)C(F)(F)F` [C7F15CH2(OC2H4)6OH]: the “activité semblable à la thrombine” value with sang humain [1] was “ne produisent pas”. Besides, in the data set on sang humain [2], the hémolyse result is “aucune trace”. Moreover, the hémolyse entry in the data set on sang humain [2] (listed as agent tensio-actif seul) is “absence”. In data set [3], the point de trouble is < 0 °C. In data set [4], the “soluble dans les solutés physiologiques” value was “n'est pas soluble”. Besides, in data set [4] (setting [7]), the “stabilité de l'émulsion” value is “instable” and the “temps d'éclaircissement de l'émulsion” value was ~15 min. Moreover, in the data set with sang humain [5] (setting [8]), the “action directe sur du sang normal” value was “Aucune action directe” and the fluidité result is given as “n'a pas été altérée”. Also, the “effet in vitro sur le sang humain, non coagulé” value in the data set with sang humain [5] (summary) is recorded as “sans effet”. In addition, in the data set with sang humain [6], the “amplitude « amx »” value is “diminution”, the “constante « r »” value is “léger raccourcissement” and the “« k” value is on record as “allongement”.
